Results: patent US11059845B2, “Immune stimulating macrolides” (ISR IMMUNE SYSTEM REGULATION HOLDING AB (PUBL), priority 2017, dated 2021)

Legend:
[1] = system: PBMCs; test: Cytokine/chemokine secretion from PBMCs (cytometric bead assay); format: cell-based, human; details: 2 days
Description: FIG. 11: Chemokine RANTES secretion (as measured by cytometric bead assay) from PBMC or macrophages stimulated with indicated compound for 48 h.
FIG. 12: IL12p70 secretion (as measured by cytometric bead assay) from PBMC or macrophages stimulated with indicated compound for 48 h.
FIG. 13: IL1b secretion (as measured by cytometric bead assay) from PBMC, macrophages or CD4 T cells stimulated with indicated compound for 48 h.
Study 10: PBMCs and macrophages where exposed to compounds 1 or 2 for 2 days (FIG. 11).
Study 11: PBMCs and macrophages where exposed to compounds 1 and 2 for 2 days.
Study 12: PBMCs, macrophages and CD4+ T cells where exposed to compounds 1 and 2 for 2 days.

[2] = system: C57bl/6 mice; test: MHC class I expression on CD11b+ splenocytes of mice after i.v. injection; format: in vivo, mouse; details: spleen 24 h later
Description: FIG. 15: % MHC class I high CD11b+ cells in spleen of 3 individual C57bl/6 mice injected 24 h previously with indicated compound. MHC class I and CD11 b expression was measured by flow cytometry.
Study 14: Compound 1 or A was administered i.v. to C57bl/6 mice.

[3] = system: Bifidobacterium longum subsp. infantis; test: Minimum Inhibitory Concentration (MIC) assay; format: cell-based; details: anaerobic, 37° C., 18 h
Description: (§1) The bioactivity of macrolide compounds against 4 strains of common gut bacteria (Escherichia coli, Streptococcus salivarius subsp. salivarius, Lactobacillus casei and Bifidobacterium longum subsp. infantis) and common mammalian skin isolate Micrococcus luteus, was assessed using the Minimum Inhibitory Concentration (MIC) assay. Bacterial strains were purchased from DSMZ (Brunswick, Germany) except M. luteus which was obtained from NCIMB, and stored in 20% glycerol at −80° C. Stock solutions (100% DMSO) of positive controls (azithromycin and erythromycin), and of test compounds 1 and 2 were diluted in broth to working stock concentrations of 256 μg/ml (final assay testing concentration range 128 μg/ml to 0.00391 μg/ml). Stock solutions of all other compounds were diluted in broth to working stock concentrations of 128 μg/ml (final assay testing concentration range 64 μg/ml to 0.00195 μg/ml). Bacterial strains were cultivated in appropriate broth in an anaerobic chamber at 37° C., except for M. luteus which was incubated aerobically at 37° C. 18 h cultures were diluted in broth to an OD595 of 0.1 and then further diluted 1:10. In 96-well plates, in duplicate, 200 μl working stock of test compound was transferred to well 1 and serially diluted (1:2) in broth. 100 μl bacterial suspension was aliquoted into each well and mixed thoroughly. Appropriate sterility controls were included and plates were incubated in an anaerobic chamber, or aerobically (M. luteus) at 37° C. for 18 h. The MIC was determined to be the concentration of test compound in the first well with no visible growth.

[4] = system: Micrococcus luteus; test: Minimum Inhibitory Concentration (MIC) assay; format: cell-based; details: aerobic, 37° C., 18 h
Description: as §1

[5] = system: Escherichia coli; test: Minimum Inhibitory Concentration (MIC) assay; format: cell-based; details: anaerobic, 37° C., 18 h
Description: as §1

[6] = system: Lactobacillus casei; test: Minimum Inhibitory Concentration (MIC) assay; format: cell-based; details: Lacticaseibacillus casei; anaerobic, 37° C., 18 h
Description: as §1

[7] = system: Streptococcus salivarius subsp. salivarius; test: Minimum Inhibitory Concentration (MIC) assay; format: cell-based; details: anaerobic, 37° C., 18 h
Description: as §1

[8] = system: Monocytes differentiated into macrophages; test: CD80 expression on monocytes differentiated into macrophages; format: cell-based, human; details: 24 h
Description: Human peripheral blood mononuclear cells (PBMCs) were purified from healthy donors with Ficoll-Paque density centrifugation. Cells were cultured in complete RPMI-1640 medium (Invitrogen) supplemented with 25 mM HEPES, L-glutamine, Sodium pyruvate (Sigma), 10% fetal bovine serum, 100 μg/mL penicillin and 100 μg/mL streptomycin (Hyclone). Cells were stimulated for 24 h (study 1-4) or 48 h to 1 week (study 5) in 37° C., 5% CO2 with increasing concentrations of compound 1 and 2 in tissue culture plates. The cells were removed from the plate, washed in PBS and analysed for expression of cell specific surface markers and MHC class I with flow cytometry using monoclonal antibodies from BD Pharmingen and a FACS Canto II flow cytometer.

[9] = system: T cells in PBMC; test: T cell proliferation with IL-2, Cell Trace Violet, flow cytometry; format: cell-based, human; details: 6 days, in the presence of IL-2
Description: FIG. 7. CD4 T cell proliferation after 6 days stimulation with compound 1, measured with proliferation dye Celltrace violet (Invitrogen) and flow cytometry. Untreated cells (UNT) or compound A were used as controls.
Study 6: PBMC were stimulated with compound 1 and cultured in RPMI media for 6 days in the presence of IL-2 (Miltenyi Biotechnologies) and Cell Trace Violet Dye (Invitrogen). Proliferation was measured with flow cytometry.

[10] = system: C57bl/6 mice; test: CD25 expression in blood of mice after i.v. injection; format: in vivo, mouse; details: highest dose of 5 mg/kg, 24 h
Description: FIG. 14: % CD25 high cells in blood of C57bl/6 mice injected 24 h previously with indicated dose of compound 1. CD25 expression was measured by flow cytometry.
Study 13: Compound 1 was administered i.v. to C57bl/6 mice at 0.165 mg/kg to 5 mg/kg. CD25+ cell abundance was increased in animals receiving the highest dose of 5 mg/kg (FIG. 14), as was body weight in the same group (not shown).

[11] = system: PBMCs from CMV infected donors; test: IFN-gamma secretion from PBMCs of CMV infected donors with CMV antigen (cytometric bead assay); format: cell-based, human; details: 3 days
From the text: FIG. 9: Interferon-gamma secretion (as measured by cytometric bead assay) from PBMCs (from a CMV+ donor) grown with CMV peptides in the presence or absence of compound 1 or A for […].
Study 8: PBMCs from CMV infected donors cultured in the presence of CMV antigen where either untreated or exposed to compound 1 or compound 2 for 3 days.

## CC[C@H]1OC(=O)[C@H](C)[C@@H](O[C@H]2C[C@@H](N(C)C)[C@H](O)[C@@H](C)O2)[C@H](C)[C@@H](O)[C@](C)(O)C[C@@H](C)CN(C)[C@H](C)[C@@H](O)[C@]1(C)O [Compound 1]
[1]
  IL-1beta secretion, PBMCs: slightly
  IL-12p70 secretion, PBMCs: secreted IL-12p70
  expression of RANTES in PBMCs: twofold upregulation
[2]
  splenocyte cells (CD11b+) with high MHC I expression: induced an increase
[3]
  MIC: > 64 mg/L
[4]
  MIC: > 256 mg/L
[5]
  MIC: > 64 mg/L
[6]
  MIC: > 64 mg/L
[7]
  MIC: > 64 mg/L
[8]
  CD80 on macrophages: upregulated
[9]
  cytokine driven proliferation profile of T cells: altered cytokine driven proliferation profile
[10]
  CD25+ cell abundance: increased
[11]
  IFN-gamma secretion, PBMCs with CMV antigen: induced secretion of high levels of IFN-gamma
